Source: patent US6399629B1, “Efflux pump inhibitors” (priority 1998, dated 2002)

Test system: Pseudomonas aeruginosa PAM1001
Experiment: checkerboard assay (broth microdilution): levofloxacin MIC in presence of efflux pump inhibitor
Assay type: cell-based
Method: For compounds labeled with the prefix ‘M’, potentiation effect is observed by the reduction of the minimum inhibitory concentration of levofloxacin in the presence of the experimental efflux pump inhibitor. The activity of efflux pump inhibitors (EPI) in combination with fluoroquinolones, such as levofloxacin, is assessed by the checkerboard assay (Antimicrobial Combinations. In Antibiotics in Laboratory Medicine, Ed. Victor Lorian, M.D., Fourth edition, 1996, pp 333-338) using broth microdilution method performed as recommended by the National Committee for Clinical Laboratory Standards (1997). Methods for Dilution of Antimicrobial Susceptibility Tests for Bacteria That Grow Aerobically—Fourth Edition; Approved Standard. NCCLS Document M7-A4, Vol 17 No.2). The test organism used is Pseudomonas aeruginosa PAM1001. […] The compounds tabulated below are representative of the described invention.
In these assays, multiple dilutions of two drugs, namely the EPI and levofloxacin, are being tested, alone and in combination, at concentrations equal to, above and below their respective minimal inhibitory concentrations (MICs). In the case of EPI, most of these compounds are devoid of intrinsic antimicrobial activity and are tested up to the maximum concentration of 40 μg/mL. The MIC of levofloxacin against P. aeruginosa PAM1001 is 4 μg/mL.
The EPI tested are readily soluble in water and stock solutions are prepared at a final concentration of 2 mg/mL. Stock solutions are further diluted, according to the needs of a particular assay, in Mueller Hinton Broth (MHB). Stock solution can be stored at −80° C. Quinolones are solubilized according to the instructions of the manufacturers, at a concentration of 1 mg/mL. They are then further diluted in MHB. Stock solution can be stored at −80° C.
The checkerboard assay is performed in microtiter plates. Levofloxacin is diluted in the x axis, each column containing a single concentration of levofloxacin. The EPI is diluted in the y axis, each row containing an equal concentration of EPI. The result of these manipulations is that each well of the microtiter plate contains a unique combination of concentrations of the two agents. Each EPI are tested independently.
The assay is performed in MHB with a final bacterial inoculum of 5×10^5 CFU/mL (from an early-log phase culture). Microtiter plates are incubated during 20 h at 35° C. and are read using a microtiter plate reader (Molecular Devices) at 650 nm as well as visual observation using a microtiterplate reading mirror.

| SMILES | Levofloxacin MIC Against P. aerugiuosa PAM1001 in Presence of Efflux Pump Inhibitor (EPI), Minimum Inhibitory Concentration (EPI Conc. 0 μg/mL) [µg/mL] | Levofloxacin MIC Against P. aerugiuosa PAM1001 in Presence of Efflux Pump Inhibitor (EPI), Minimum Inhibitory Concentration (EPI Conc. 0.625 μg/mL) [µg/mL] | Levofloxacin MIC Against P. aerugiuosa PAM1001 in Presence of Efflux Pump Inhibitor (EPI), Minimum Inhibitory Concentration (EPI Conc. 1.25 μg/mL) [µg/mL] | Levofloxacin MIC Against P. aerugiuosa PAM1001 in Presence of Efflux Pump Inhibitor (EPI), Minimum Inhibitory Concentration (EPI Conc. 2.5 μg/mL) [µg/mL] | Levofloxacin MIC Against P. aerugiuosa PAM1001 in Presence of Efflux Pump Inhibitor (EPI), Minimum Inhibitory Concentration (EPI Conc. 5 μg/ mL) [µg/mL] | Levofloxacin MIC Against P. aerugiuosa PAM1001 in Presence of Efflux Pump Inhibitor (EPI), Minimum Inhibitory Concentration (EPI Conc. 10 μg/mL) [µg/mL] | Levofloxacin MIC Against P. aerugiuosa PAM1001 in Presence of Efflux Pump Inhibitor (EPI), Minimum Inhibitory Concentration (EPI Conc. 20 μg/mL) [µg/mL] | Levofloxacin MIC Against P. aerugiuosa PAM1001 in Presence of Efflux Pump Inhibitor (EPI), Minimum Inhibitory Concentration (EPI Conc. 40 μg/mL) [µg/mL] |
| --- | --- | --- | --- | --- | --- | --- | --- | --- |
| NCCCC1CN[C@H](C(=O)N[C@H](CCc2ccccc2)C(=O)Nc2cnc3ccccc3c2)C1 (mixture of isomers) [Compound M93, (2S,4RS)-4-(3-Aminopropyl)-N-[(1R)-3-phenyl-1-(3-quiolylcarbamoyl)propyl]-2-pyrrolidinecarboxamide] | 4 | 4 | 2 | 0.25 | 0.125 | 0.015 | 0.015 | 0.008 |
| NCC(=O)N[C@@H]1CN[C@@H](C(=O)N[C@H](CCc2ccccc2)C(=O)Nc2cnc3ccccc3c2)C1 [Compound M1, (2R,4S)-4-(2-Amionoacetamido)-N-[(1R-)-3-phenyl-1-(3-quinolylcarbamoyl)propyl]-2-pyrrolidinecarboxamide] | 4 | 4 | 4 | 4 | 2 | 0.06 | 0.015 | 0.015 |
| NCC(=O)N[C@@H]1CN[C@@H](C(=O)N[C@H](CCc2ccccc2)C(=O)NCCCc2ccccc2)C1 [Compound M2] | 4 | 4 | 4 | 4 | 2 | 2 | 0.25 | 0.125 |
| CC(N)C(=O)N[C@H]1CN[C@H](C(=O)N[C@H](CCc2ccccc2)C(=O)Nc2cnc3ccccc3c2)C1 (stereo partly drawn) [Compound M4, (2S,4R)-4-(2-Aminopropionamido]-N-[(1R)-3-pheyl-1-(3-quinolylcarbamoyl)propyl]-2-pyrrolidinecarboxamide] | 4 | 4 | 4 | 4 | 2 | 2 | 1 | 0.015 |
